We go through 14 molecules from ChEMBL document CHEMBL3044843, “Synthesis of 1,2,3-triazole tethered bifunctional hybrids by click chemistry and their cytotoxic studies” (2013).

Holding throughout (format): functional
What all share (details): read-out: GI

For assay [1], the system named is THP-1. As to the kind of experiment: Growth inhibition of Homo sapiens (human) THP1 cells at 10 uM by SRB assay.
The subject of assay [2] is A549. The experiment in a line: Growth inhibition of Homo sapiens (human) A549 cells at 10 uM by SRB assay. In general terms: In SRB staining, fixed cells bind dye roughly in proportion to their protein.
Assay [3] concerns THP-1. As to the kind of experiment: Growth inhibition of Homo sapiens (human) THP1 cells at 100 uM by SRB assay.
Assay [4] deals with COLO 205. The experiment in a line: Growth inhibition of Homo sapiens (human) COLO205 cells at 100 uM by SRB assay.
The test system of assay [5] is COLO 205. The experiment in a line: Growth inhibition of Homo sapiens (human) COLO205 cells at 10 uM by SRB assay.
Assay [6] has as its system A549. The experiment in a line: Growth inhibition of Homo sapiens (human) A549 cells at 100 uM by SRB assay.
For assay [7], the system named is COLO 205. The experiment in a line: Growth inhibition of Homo sapiens (human) COLO205 cells at 1 uM by SRB assay.

Counter-ions that a name gives are not always drawn.

As for `COc1cc(C2CC(c3ccc(Br)cc3)=NN2C(C)=O)ccc1OCc1cn(Cc2ccc([N+](=O)[O-])cc2)nn1` (stereo not given), the inhibition of growth at 10 µM with THP-1 [1] is 1%; with A549 [2], 0%; in the assay on COLO 205 [5], 26%. The inhibition of growth at 100 µM came to 23% in the assay on THP-1 [3], 47% in the assay with COLO 205 [4] and 17% in the assay with A549 [6].

On to `COc1cc(C2CC(c3ccc(OCc4cn(Cc5ccc([N+](=O)[O-])cc5)nn4)cc3)=NN2C(C)=O)ccc1OCc1cn(Cc2ccc([N+](=O)[O-])cc2)nn1` (stereo not given), for which the inhibition of growth at 10 µM with THP-1 [1] amounted to 0%; in the assay on A549 [2], 29%; in the assay on COLO 205 [5] it was 27%. Besides, the inhibition of growth at 100 µM was 15% in the assay on THP-1 [3], 51% in the assay on COLO 205 [4] and 42% with A549 [6].

As for `COc1cc(C2CC(c3ccc(Cl)cc3)=NN2C(C)=O)ccc1OCc1cn(Cc2ccc([N+](=O)[O-])cc2)nn1` (stereo not given), the inhibition of growth at 10 µM was 17% in the assay on THP-1 [1], 0% in the assay on A549 [2] and 0% in the assay with COLO 205 [5]. Besides, the results for the inhibition of growth at 100 µM in the assay on THP-1 [3], with COLO 205 [4] and in the assay with A549 [6] were 37%, 10% and 0%, respectively.

Turning to `COc1ccc(C2CC(c3ccc(OCc4cn(Cc5ccc([N+](=O)[O-])cc5)nn4)cc3)=NN2C(C)=O)cc1OC` (stereo not given), the inhibition of growth at 10 µM came to 8% in the assay with THP-1 [1], 11% with A549 [2] and 9% in the assay on COLO 205 [5]. The inhibition of growth at 100 µM came out at 9% in the assay with THP-1 [3], 38% with COLO 205 [4] and 36% with A549 [6].

For `COc1ccc(C2=NN(C(C)=O)C(c3ccc(OCc4cn(Cc5ccc([N+](=O)[O-])cc5)nn4)c(OC)c3)C2)cc1` (stereo not given), the inhibition of growth at 10 µM in the assay on THP-1 [1] stood at 8%; in the assay on A549 [2], 43%; in the assay on COLO 205 [5], 10%. Besides, the inhibition of growth at 100 µM in the assay on THP-1 [3] was found to be 14%; in the assay with COLO 205 [4] it was 75%; in the assay on A549 [6], 84%.

As to `CC(=O)O[C@H]1C(=O)[C@@]2(C)[C@H]([C@H](OC(=O)c3ccccc3)[C@]3(O)C[C@H](OC(=O)[C@H](O)[C@@H](NC(=O)c4ccccc4)c4ccccc4)C(C)=C1C3(C)C)[C@]1(OC(C)=O)CO[C@@H]1C[C@@H]2O` [PACLITAXEL], the inhibition of growth at 10 µM came out at 62% with THP-1 [1] and 59% in the assay with A549 [2].

As to `COc1ccc(C2CC(c3ccc(OCc4cn(Cc5ccc([N+](=O)[O-])cc5)nn4)cc3)=NN2C(C)=O)cc1` (stereo not given), the values for the inhibition of growth at 10 µM with THP-1 [1], in the assay with A549 [2] and in the assay with COLO 205 [5] were 15%, 26% and 4%, respectively. For the same molecule, the inhibition of growth at 100 µM amounted to 26% with THP-1 [3], 37% in the assay on COLO 205 [4] and 33% with A549 [6].

Regarding `CC(=O)N1N=C(c2ccc(OCc3cn(Cc4ccc([N+](=O)[O-])cc4)nn3)cc2)CC1c1ccccc1` (stereo not given), the results for the inhibition of growth at 10 µM in the assay on THP-1 [1], in the assay with A549 [2] and in the assay on COLO 205 [5] were 0%, 15% and 18%, respectively. Also, the inhibition of growth at 100 µM was 22% in the assay on THP-1 [3], 55% with COLO 205 [4] and 80% in the assay with A549 [6].

`COc1cc(C2CC(c3cccc4ccccc34)=NN2C(C)=O)ccc1OCc1cn(Cc2ccc([N+](=O)[O-])cc2)nn1` (stereo not given): the inhibition of growth at 10 µM turned out to be 10% in the assay on THP-1 [1], 89% in the assay with A549 [2] and 46% in the assay on COLO 205 [5]. The inhibition of growth at 100 µM stood at 79% in the assay on THP-1 [3], 72% in the assay on COLO 205 [4] and 95% in the assay on A549 [6].

Turning to `CO[C@@]12[C@H](COC(N)=O)C3=C(C(=O)C(C)=C(N)C3=O)N1C[C@@H]1N[C@@H]12` [MITOMYCIN], the inhibition of growth at 10 µM in the assay on THP-1 [1] turned out to be 65%.

For `COc1cccc2c1C(=O)c1c(O)c3c(c(O)c1C2=O)C[C@@](O)(C(=O)CO)C[C@@H]3O[C@H]1C[C@H](N)[C@H](O)[C@H](C)O1` [DOXORUBICIN HYDROCHLORIDE], the inhibition of growth at 1 µM with COLO 205 [7] came out at 72%.

On to `COc1cc(C2CC(c3cc(OC)c(OC)c(OC)c3)=NN2C(C)=O)ccc1OCc1cn(Cc2ccc([N+](=O)[O-])cc2)nn1` (stereo not given), for which the inhibition of growth at 10 µM in the assay on THP-1 [1] came out at 29%; in the assay on A549 [2], 68%; in the assay with COLO 205 [5], 60%. In addition, the figures for the inhibition of growth at 100 µM with THP-1 [3], with COLO 205 [4] and in the assay with A549 [6] were 43%, 99% and 85%, respectively.

Consider `COc1cc(C2CC(c3ccccc3)=NN2C(C)=O)ccc1OCc1cn(Cc2ccc([N+](=O)[O-])cc2)nn1` (stereo not given), for which the values for the inhibition of growth at 10 µM in the assay on THP-1 [1], in the assay on A549 [2] and with COLO 205 [5] were 0%, 0% and 7%, respectively. In addition, the values for the inhibition of growth at 100 µM with THP-1 [3], with COLO 205 [4] and in the assay with A549 [6] were 10%, 11% and 11%, respectively.

Regarding `COc1cc(C2CC(c3ccc([N+](=O)[O-])cc3)=NN2C(C)=O)ccc1OCc1cn(Cc2ccc([N+](=O)[O-])cc2)nn1` (stereo not given), the inhibition of growth at 10 µM worked out at 7% in the assay on THP-1 [1], 39% with A549 [2] and 33% in the assay with COLO 205 [5]. Besides, the inhibition of growth at 100 µM in the assay with THP-1 [3] worked out at 59%; in the assay with COLO 205 [4], 85%; in the assay on A549 [6], 72%.
